Experimental data published in patent US11324706B2, “Composition for inhibiting growth of breast cancer stem cells containing phenylacetaldehyde” (JEJU NATIONAL UNIVERSITY INDUSTRY-ACADEMIC COOPERATION …, priority 2016, dated 2022).

Columns and labels:
MDA-MB-231 cells = assay: Cell proliferation (MTS) analysis, MDA-MB-231; type: cell-based, human; conditions: MDA-MB-231, 48 hours after PAA treatment
Protocol: (FIGS. 1A, B and C) show chemical structures of PAA and viability of MCF-7 and MDA-MB-231 cells depending on PAA. MCF-7 and MDA-MB-231 cells were treated with increasing concentrations of PAA for 48 hours. Anti-proliferation effects of PAA were measured by MTS analysis.
Proliferation rates of MCF-7 and MDA-MB-231 cells were measured using a CellTiter 96® aqueous one solution cell proliferation kit. MCF-7 and MDA-MB-231 cells were cultured in the presence of PAA (0.1, 0.2, 0.5, 1 and 2 mM) on a 96-well plate for 48 hours. In accordance with the manufacturer's protocol, absorbance at 490 nm was determined using a 96-well plate reader (Dynex Revelation, Dynex Ltd., Billingshurst, UK). All data was determined by measurement of three sets.
In order to investigate anti-proliferation effects of PAA in human breast cancer cell lines, i.e., MCF-7 and MDA-MB-231, the cancer cell lines were treated with different concentrations of PAA and then MTS analysis was conducted.

[1] = system: CD44high/CD24low cell populations of MDA-MB-231 cells; assay: Flow cytometric analysis of CD44 and CD24 expression; type: cell-based, human; conditions: MDA-MB-231, PAA 0.1 mM
Protocol: For FACS analysis, 50,000 cells were obtained. Gating was based on control antibody;
Expression of CD44 and CD24 in MDA-MB-231 cells was measured by FACS analysis. The cells were isolated and harvested using 1× trypsin/EDTA, and a million of cells were suspended, labelled with FITC-conjugated anti-human CD44 and PE-conjugated anti-human CD24 antibodies (BD Pharmingen, San Diego, Calif., USA) and cultured at 4° C. for 30 minutes. Then, the cells were washed with 1×PBS three times and analyzed by flow cytometry (Accuri C6, BD, San Diego, Calif., USA).

[2] = system: MCF-7 cell-derived mammospheres; assay: Mammosphere formation, MCF-7-derived; type: cell-based, human
Protocol: FIGS. 4A, 4B and 4C show effects of PAA on formation of MCF-7 cell-derived mammospheres. Primary mammospheres were cultured together with PAA (0.2 and 0.5 mM) or DMSO;
Human breast cancer cells, i.e., MCF-7 and MDA-MB-231, were commercially obtained from American Type Culture Collection (ATCC; Manassas, Va., USA). MCF-7 and MDA-MB-231 cells were cultured in Dulbecco's modified essential medium (DMEM; Hyclone, Logan, Utah, USA) containing 10% fetal bovine serum (FBS; Hyclone), 100 U/mL of penicillin, and 100 μg/mL of streptomycin (Hyclone). The MCF-7 and MDA-MB-231 cells were maintained at 37° C. in a 5% CO2-containing humidified incubator. The cells were plated at a density of 1×10^6 on a 10 cm petri dish. In order to establish primary mammospheres, single cell-suspended MCF-7 and MDA-MB-231 cells were seeded at a density (cells/well) of 3.5×10^4 to 4×10^4 and 0.5×10^4 to 1×10^4, respectively, on ultra-low attachment 6-well plates containing 2 ml complete MammoCult™ medium (StemCell Technologies, Vancouver, BC, Canada). The complete MammoCult™ medium was supplemented with 4 μg/mL of heparin, 0.48 μg/mL of hydrocortisone, 100 U/mL of penicillin and 100 μg/mL of streptomycin. The cells were cultured for 7 days in a 37° C. 5% CO2 incubator.
At 7 days of culture, the cell culture plate was disposed on a scanner (Epson Perfection V700 PHOTO, Epson Korea, Co, Seoul, Korea) to obtain an 8 bit gray scale image of mammospheres. The image was obtained at a low resolution (300 dpi) using an NICE software program and downloaded from ftp://ftp.nist.gov/pub/physics/mLclarke/NICE. For counting, preferred numbers of rows and columns (for example, 2×3 of 6-well plate) were selected to form regions of interest (ROIs), and an oval setting of the NICE program was selected and then respective ROIs were defined by moving the shapes of provided ROIs and controlling the sizes thereof. The background signal of the image was negated using a critical algorithm and the selected image was automatically counted. Regarding the mammosphere formation analysis, formation efficiency of mammospheres (MFE, %) was determined in accordance with the number of mammospheres per well/the total number of cells plated per well×100.

[3] = biological target: T1, Stat3 / biotin-labelled Stat probe (Homo sapiens, UniProt P40763); assay: Electrophoretic mobility shift assay (EMSA) with Stat3 probe; type: cell-based; conditions: PAA-treated mammosphere nuclear extracts
T1 construct: EMSA (electrophoretic mobility-shift assay) of PAA-treated MDA-MB-231 cell-derived mammosphere nuclear lysates; endogenous in cells; host or cells: MDA-MB-231 cell-derived mammospheres (nuclear lysate)
Protocol: Nuclear lysates were cultured in biotin-labeled Stat3 probes and were isolated by 6% PAGE;
Lane 1: probe alone; Lane 2: probe+nuclear extracts; Lane 3: probe+PAA-treated nuclear extracts; Lane 4: self-competition; Lane 5: nuclear extracts cultured together with mutant STAT3 probe. The PAA reduced DNA/STAT3 interactions in mammosphere nuclear lysates;
In accordance with the manufacturer's instructions, EMSAs were detected using a chemiluminescent EMSA kit (Thermoscientific, IL, USA) commercially available from Lightshift. Biotin-top and bottom probe parts (5′-[…]-Biotin3′, SEQ NO. 11 and 5′-[…]-Biotin3′, SEQ NO. 12) of Stat3 probe were annealed and the double-stranded oligonucleotide was end-labelled with biotin.
Biotin-labelled DNA probes were cultured together with PAA-treated nuclear proteins in a total volume of 20 μl of EMSA buffer containing 1 μg/μl poly[dI-dC]) for 20 minutes at room temperature. The reaction mixture was subjected to electrophoresis on 4% polyacrylamide nondenaturing gel at 4° C. in the presence of 0.5×TBE (45 mM Tris borate and 1 mM EDTA) and visualized using a chemiluminescence nucleic acid detection kit (Thermoscientific, IL, USA).
In addition, bonding between PAA-treated nuclear extracts and Stat3 DNAs was analyzed using a biotin-labelled Stat-conjugated probe that bonds to STAT3 at a high affinity. […]

[4] = system: MDA-MB-231 cell-derived mammospheres; assay: Mammosphere formation, MDA-MB-231-derived; type: cell-based, human; conditions: PAA 0.05 and 0.1 mM, 7 days
Protocol: The mammospheres were cultured together with PAA (0.05 and 0.1 mM) or DMSO. MCF-7 and MDA-MBB-231 cells were treated with PAA and DMSO during the culture period of 7 days.
Human breast cancer cells, i.e., MCF-7 and MDA-MB-231, were commercially obtained from American Type Culture Collection (ATCC; Manassas, Va., USA). MCF-7 and MDA-MB-231 cells were cultured in Dulbecco's modified essential medium (DMEM; Hyclone, Logan, Utah, USA) containing 10% fetal bovine serum (FBS; Hyclone), 100 U/mL of penicillin, and 100 μg/mL of streptomycin (Hyclone). The MCF-7 and MDA-MB-231 cells were maintained at 37° C. in a 5% CO2-containing humidified incubator. The cells were plated at a density of 1×10^6 on a 10 cm petri dish. […]
At 7 days of culture, the cell culture plate was disposed on a scanner (Epson Perfection V700 PHOTO, Epson Korea, Co, Seoul, Korea) to obtain an 8 bit gray scale image of mammospheres. […] The background signal of the image was negated using a critical algorithm and the selected image was automatically counted. Regarding the mammosphere formation analysis, formation efficiency of mammospheres (MFE, %) was determined in accordance with the number of mammospheres per well/the total number of cells plated per well×100.

T1 sequence (P40763 2-770 limits assumed): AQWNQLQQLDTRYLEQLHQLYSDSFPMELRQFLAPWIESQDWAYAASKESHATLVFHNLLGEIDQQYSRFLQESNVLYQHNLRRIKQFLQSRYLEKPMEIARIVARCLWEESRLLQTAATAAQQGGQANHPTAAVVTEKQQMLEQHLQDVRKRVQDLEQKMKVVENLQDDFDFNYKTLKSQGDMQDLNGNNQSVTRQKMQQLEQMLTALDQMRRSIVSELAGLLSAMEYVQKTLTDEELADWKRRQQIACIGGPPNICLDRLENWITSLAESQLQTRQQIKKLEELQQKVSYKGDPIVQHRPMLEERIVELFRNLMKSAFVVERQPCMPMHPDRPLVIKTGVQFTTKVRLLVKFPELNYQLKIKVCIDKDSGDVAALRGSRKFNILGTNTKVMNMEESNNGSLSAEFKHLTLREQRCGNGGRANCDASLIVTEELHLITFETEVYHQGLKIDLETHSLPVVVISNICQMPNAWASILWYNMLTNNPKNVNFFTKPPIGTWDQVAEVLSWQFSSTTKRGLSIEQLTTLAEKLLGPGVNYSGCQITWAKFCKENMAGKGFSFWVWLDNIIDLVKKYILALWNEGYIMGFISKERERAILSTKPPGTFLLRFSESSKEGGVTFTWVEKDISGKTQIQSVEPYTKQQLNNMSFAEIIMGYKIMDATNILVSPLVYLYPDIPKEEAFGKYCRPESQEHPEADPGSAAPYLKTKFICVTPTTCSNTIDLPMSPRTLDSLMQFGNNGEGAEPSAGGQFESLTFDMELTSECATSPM

## O=CCc1ccccc1 [PAA, phenylacetaldehyde]
MDA-MB-231 cells
  PAA concentration at which growth of the cell line was concentration-dependently inhibited: ≥ 100 μm
[1]
  subpopulation expressing CD44high/CD24low in breast cancer cells: reduced
[2]; MCF-7-derived, 7 days
  size of mammospheres: reduced
[2]; volatile materials exposed to MCF-7 (FIG. 5B)
  formation of primary mammospheres derived from MCF-7 cells: potently inhibited
[3]
  bonding between biotin-labelled Stat probe and Stat3: inhibited
[4]
  number of primary mammospheres derived from MDA-MB-231 cells: reduced
